Type: physicochemical
Conditions: pH 7
Source text: The solubility of cyromazine in a range of organic solvents including solvents which are commonly used in topical spray-on formulations is shown in the table below.

Q: Which “Solubility (g/kg) at 20° C.” value does the source give for Nc1nc(N)nc(NC2CC2)n1 [cyromazine, 2-cyclopropyl-amino-4,6-diamino-s-triazine] here?
A: 1.3 (pH 7) g/kg

From patent US20090306080A1, “VETERINARY FORMULATION” (priority 2006, published 2009)
